Measurements from US20040224910A1, “Recombinant nematode nicotinic receptor and uses” (priority 1999, published 2004).
Entries after “also recorded” stand apart in the source; their conditions may differ.

Biological target: T1, heterotrimeric UNC-63, UNC-29, LEV-1 receptor (Caenorhabditis elegans, UniProt P48181+Q27218+Q9N587)
T1 construct: used to generate a full length cDNA clone by 3′ RACE on Marathon cDNA; expressed in transfected cells; host or cells: Xenopus laevis oocytes (nuclear injection of pMT3 cDNA constructs)
Assay: Two-electrode voltage-clamp of recombinant nAChR expressed in Xenopus laevis oocytes
Format: cell-based, C. elegans
Details: for agonist activity on the expressed receptor: holding potential -100 mV
Procedure: Ovaries were surgically removed from anaesthetised mature female Xenopus laevis. The follicle layers were manually removed from healthy stage V and VI oocytes following a 15 min incubation with collagenase (type IA, 2 mg ml^−1) in a calcium-free version of standard oocyte saline. The composition of SOS was as follows (mM): NaCl 100, KCl 2, CaCl2 1.8, MgCl2 1 and HEPES 5; pH 7.6. In calcium-free saline, the CaCl2 was replaced by 1.8 mM BaCl2. […] The nucleus of each oocyte was injected with 20 nl of DNA (0.1 μg μl^−1). The injected oocytes were transferred to incubation medium composed of SOS supplemented with penicillin (100 units ml^−1), streptomycin (100 μg ml^−1), gentamycin (50 μg ml^−1) and 2.5 mM sodium pyruvate and placed at 4° C. for 30 min immediately after injection to enable recovery. Oocytes were maintained at 16° C. for 2-4 days prior to electrophysiological studies.
Oocytes were restrained with entomological pins in a Perspex chamber (80 μl volume) with a Sylgard base and perfused continuously (5 ml min^−1) with SOS using a gravity-fed system. Membrane currents were measured by the two-electrode voltage-clamp method, using 3M KCl filled electrodes (resistance=0.5-5 MΩ) and either a Geneclamp amplifier (Axon Instruments). The oocyte membrane potential was clamped at −100 mV. Signals were digitized by a TL-1 interface (Axon Instruments, U.S.A).

T1 sequence (P48181 27-493): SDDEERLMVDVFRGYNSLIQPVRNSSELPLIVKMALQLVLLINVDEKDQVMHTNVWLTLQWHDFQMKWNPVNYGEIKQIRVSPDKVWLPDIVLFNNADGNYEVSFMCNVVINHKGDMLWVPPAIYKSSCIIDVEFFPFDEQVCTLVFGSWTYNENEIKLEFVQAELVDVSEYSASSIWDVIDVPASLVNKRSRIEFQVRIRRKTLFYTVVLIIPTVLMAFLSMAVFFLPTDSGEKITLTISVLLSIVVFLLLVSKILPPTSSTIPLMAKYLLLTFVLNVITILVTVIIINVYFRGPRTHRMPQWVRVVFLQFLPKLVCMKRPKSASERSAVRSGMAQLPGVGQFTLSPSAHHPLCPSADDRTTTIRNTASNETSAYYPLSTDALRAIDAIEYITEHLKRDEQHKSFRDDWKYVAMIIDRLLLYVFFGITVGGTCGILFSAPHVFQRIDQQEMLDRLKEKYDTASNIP
T1 sequence (Q27218 32-507): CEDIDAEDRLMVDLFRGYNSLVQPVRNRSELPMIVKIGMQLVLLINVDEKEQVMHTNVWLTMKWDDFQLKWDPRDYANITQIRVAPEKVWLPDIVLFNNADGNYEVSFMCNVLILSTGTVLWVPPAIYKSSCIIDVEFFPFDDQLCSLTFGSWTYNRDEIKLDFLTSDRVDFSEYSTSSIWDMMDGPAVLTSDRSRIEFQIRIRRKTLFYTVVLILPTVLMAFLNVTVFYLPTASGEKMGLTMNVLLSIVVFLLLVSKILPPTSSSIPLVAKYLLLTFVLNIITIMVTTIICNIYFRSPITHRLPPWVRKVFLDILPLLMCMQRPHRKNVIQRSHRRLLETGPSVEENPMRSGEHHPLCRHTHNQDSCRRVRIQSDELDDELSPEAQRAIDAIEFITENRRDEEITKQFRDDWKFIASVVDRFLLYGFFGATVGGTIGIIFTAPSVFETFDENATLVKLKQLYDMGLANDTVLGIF
T1 sequence (Q9N587 24-502): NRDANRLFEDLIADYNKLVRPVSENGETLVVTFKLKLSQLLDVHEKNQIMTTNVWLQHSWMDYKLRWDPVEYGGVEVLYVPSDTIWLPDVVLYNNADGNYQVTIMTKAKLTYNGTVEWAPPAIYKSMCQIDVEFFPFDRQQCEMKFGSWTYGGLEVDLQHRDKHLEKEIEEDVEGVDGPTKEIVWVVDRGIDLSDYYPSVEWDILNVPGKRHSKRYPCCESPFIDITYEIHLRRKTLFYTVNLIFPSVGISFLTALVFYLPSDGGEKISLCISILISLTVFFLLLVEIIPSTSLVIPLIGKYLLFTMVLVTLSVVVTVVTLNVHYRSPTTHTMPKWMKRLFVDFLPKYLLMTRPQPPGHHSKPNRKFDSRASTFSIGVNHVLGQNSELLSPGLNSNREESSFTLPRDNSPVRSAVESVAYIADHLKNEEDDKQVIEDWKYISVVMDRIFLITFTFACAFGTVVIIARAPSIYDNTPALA

Row | Compound | agonist activity on the expressed receptor (Xenopus oocytes) | block of the agonist action of levamisole (10 μM mecamylamine, Xenopus oocytes (FIG. 6)) | antagonism of ACh-induced currents (10 μM, Xenopus oocytes)
1 | CC(=O)OCC[N+](C)(C)C.[Cl-] [ACh, Acetylcholine chloride] | full agonist |  | 
2 | CNC1(C)C2CCC(C2)C1(C)C (centres unmarked) [Mecamylamine, mecamylamine] |  | blocked | effective antagonist
3 | c1ccc([C@H]2CN3CCSC3=N2)cc1 [levamisole] | partial agonists; also recorded: partial agonist activity |  | 
4 | CN1CCCC1c1cccnc1 (centres unmarked) [nicotine] | partial agonists; also recorded: partial agonist activity |  | 
